In article PMC9226124, “Macrocycle-stabilization of its interaction with 14-3-3 increases plasma membrane localization and activity of CFTR” (Nature Communications, 2022):
Where “and” joins values, the source holds several entries; their conditions need not be identical. Identical values can stand only once. Each block holds one compound with its values, some of them ahead of it.

Assays:
[1] = molecular target: T1, FITC-labeled CFTRpS753pS768 peptide (no 14-3-3) (Homo sapiens, UniProt P13569); experiment: Dose-response FP control assay in the absence of 14-3-3; type: binding; conditions: No 14-3-3
T1 construct: made in house; host or cells: synthetic peptide
Experimental: The 14-3-3β concentration used for the FP screening assay was 10 μM (dashed line). c HTS FP assay of the Cyclenium library. The samples contain 100 nM of FITC-CFTR_pS753pS768 peptide, 10 μM 14-3-3β, and 50 μM compound. FC-A (100 µM) was added as a positive control and DMSO as the negative control. Hit compounds are defined as a polarization increase which is higher than 20% of the response of FC-A. Red squares are compounds that appeared positive in the negative control without 14-3-3. […] Background polarization was subtracted from all values, n = 3 technical replicates. Compounds selected for further analysis are indicated with an asterisk. e Polarization in the absence of 14-3-3. […] Source data are provided as a Source Data file.
The FITC-labeled peptides were dissolved in FP buffer (10 mM HEPES pH 7.4, 150 mM NaCl, 0.1% Tween20, 1 mg/mL BSA) to a final concentration of 100 nM or 10 nM. For the dose-response assays, a 14-3-3β concentration of 10 μM was used while titrating the compounds in a two-times dilution series and, for the other assays, a dilution series of 14-3-3β was made with constant concentration of compound. The dilution series were made in 384 Corning Black Round Bottom well plates and their polarization was measured with a Tecan Infinite F500 plate reader (ex. = 485 nm, em. = 535 nm). The method of fitting of the curves was: “log(agonist) vs. response – Variable slope (four parameters)” from GraphPad Prism. The equation is Y = Bottom + (Top-Bottom)/(1 + 10^((LogEC50-X)*HillSlope)).

[2] = molecular target: T2, 14-3-3β/CFTRpS753pS768 complex (Homo sapiens, UniProt P13569+P31946); experiment: FP assay, 14-3-3β titration at constant compound concentration (apparent KD); type: binding
T2 construct: His6 (cleaved yes); made in house; peptide synthetic
Experimental: FC-A (100 µM) was added as a positive control and DMSO as the negative control. […] Background polarization was subtracted from all values, n = 3 technical replicates. […] Source data are provided as a Source Data file. […]
The FITC-labeled peptides were dissolved in FP buffer (10 mM HEPES pH 7.4, 150 mM NaCl, 0.1% Tween20, 1 mg/mL BSA) to a final concentration of 100 nM or 10 nM. […] The dilution series were made in 384 Corning Black Round Bottom well plates and their polarization was measured with a Tecan Infinite F500 plate reader (ex. = 485 nm, em. = 535 nm). The method of fitting of the curves was: “log(agonist) vs. response – Variable slope (four parameters)” from GraphPad Prism. The equation is Y = Bottom + (Top-Bottom)/(1 + 10^((LogEC50-X)*HillSlope)).
from the hit validation library.
f the compound, 100 µM FC-A, or both compound and FC-A, 100 µM each. Background polarization was subtracted f
rom all values, n=3 technical replicates.
Source data are provided as a Source Data file.

T1 sequence (P13569 747-774 limits assumed): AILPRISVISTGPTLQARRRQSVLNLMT
T2 sequence (P31946 whole entry): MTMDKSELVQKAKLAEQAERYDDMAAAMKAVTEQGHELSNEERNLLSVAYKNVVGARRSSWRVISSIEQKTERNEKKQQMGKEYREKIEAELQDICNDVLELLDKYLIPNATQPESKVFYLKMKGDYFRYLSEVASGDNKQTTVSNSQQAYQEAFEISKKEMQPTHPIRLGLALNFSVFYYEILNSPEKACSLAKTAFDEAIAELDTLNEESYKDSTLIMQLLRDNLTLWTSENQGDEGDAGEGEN

FP signal ([1]; compound 476.8 pM): 3
FP signal ([1]; compound 953.7 pM): 3
FP signal ([1]; compound 1.90735e-9 M): 4
FP signal ([1]; compound 3.8147e-9 M): 4
FP signal ([1]; compound 7.6294e-9 M): 3
FP signal ([1]; compound 1.52588e-8 M): 5
FP signal ([1]; compound 3.05176e-8 M): 4
FP signal ([1]; compound 6.10352e-8 M): 5
FP signal ([1]; compound 1.2207e-7 M): 4
FP signal ([1]; compound 2.44141e-7 M): 4
FP signal ([1]; compound 4.88281e-7 M): 5
FP signal ([1]; compound 9.76563e-7 M): 6
FP signal ([1]; compound 1.95313e-6 M): 6
FP signal ([1]; compound 3.90625e-6 M): 6
FP signal ([1]; compound 7.8125e-6 M): 7
FP signal ([1]; compound 1.5625e-5 M): 9
FP signal ([1]; compound 3.125e-5 M): 16
FP signal ([1]; compound 6.25e-5 M): 33
FP signal ([1]; compound 0.000125 M): 73
FP signal ([1]; compound 0.00025 M): 143
FP signal ([1]; compound 0.0005 M): 201
FP signal ([1]; compound 0.001 M): 252
Fluorescence polarization signal, 14-3-3β titration ([2]; CY compound (100 μM), 14-3-3β concentration 119.2 pM): -2.333
Fluorescence polarization signal, 14-3-3β titration ([2]; CY compound (100 μM), 14-3-3β concentration 2.44141e-7 M): 10.6667 and 8.667
Fluorescence polarization signal, 14-3-3β titration ([2]; CY compound (100 μM), 14-3-3β concentration 4.88281e-7 M): 15.6667 and 13.6667
Fluorescence polarization signal, 14-3-3β titration ([2]; CY compound (100 μM), 14-3-3β concentration 9.76563e-7 M): 27.6667 and 26.6667 and 29.6667
Fluorescence polarization signal, 14-3-3β titration ([2]; CY compound (100 μM), 14-3-3β concentration 1.95313e-6 M): 40.6667 and 36.6667
Fluorescence polarization signal, 14-3-3β titration ([2]; CY compound (100 μM), 14-3-3β concentration 3.90625e-6 M): 51.6667 and 49.6667 and 46.6667
Fluorescence polarization signal, 14-3-3β titration ([2]; CY compound (100 μM), 14-3-3β concentration 7.8125e-6 M): 63.6667 and 58.6667 and 54.6667
Fluorescence polarization signal, 14-3-3β titration ([2]; CY compound (100 μM), 14-3-3β concentration 1.5625e-5 M): 72.6667 and 68.6667 and 66.6667
Fluorescence polarization signal, 14-3-3β titration ([2]; CY compound (100 μM), 14-3-3β concentration 3.125e-5 M): 82.6667 and 80.6667
Fluorescence polarization signal, 14-3-3β titration ([2]; CY compound (100 μM), 14-3-3β concentration 6.25e-5 M): 93.6667 and 92.6667 and 96.6667
Fluorescence polarization signal, 14-3-3β titration ([2]; CY compound (100 μM), 14-3-3β concentration 0.000125 M): 115.667 and 110.667 and 114.667
Fluorescence polarization signal, 14-3-3β titration ([2]; CY compound (100 μM), 14-3-3β concentration 0.00025 M): 126.667 and 124.667 and 128.667
Fluorescence polarization signal, 14-3-3β titration ([2]; CY compound (100 μM), 14-3-3β concentration 0.0005 M): 148.667 and 147.667
Fluorescence polarization signal, 14-3-3β titration ([2]; FC-A + CY compound, 14-3-3β concentration 1.52588e-8 M): 4.333 and 2.333 and 3.333
Fluorescence polarization signal, 14-3-3β titration ([2]; FC-A + CY compound, 14-3-3β concentration 6.10352e-8 M): 10.3333 and 8.333
Fluorescence polarization signal, 14-3-3β titration ([2]; FC-A + CY compound, 14-3-3β concentration 1.2207e-7 M): 16.3333 and 18.3333 and 15.3333
Fluorescence polarization signal, 14-3-3β titration ([2]; FC-A + CY compound, 14-3-3β concentration 2.44141e-7 M): 30.3333 and 31.3333 and 29.3333
Fluorescence polarization signal, 14-3-3β titration ([2]; FC-A + CY compound, 14-3-3β concentration 4.88281e-7 M): 47.3333 and 45.3333 and 44.3333
Fluorescence polarization signal, 14-3-3β titration ([2]; FC-A + CY compound, 14-3-3β concentration 9.76563e-7 M): 71.3333 and 70.3333 and 66.3333
Fluorescence polarization signal, 14-3-3β titration ([2]; FC-A + CY compound, 14-3-3β concentration 1.95313e-6 M): 93.3333 and 85.3333
Fluorescence polarization signal, 14-3-3β titration ([2]; FC-A + CY compound, 14-3-3β concentration 3.90625e-6 M): 110.333 and 108.333 and 107.333
Fluorescence polarization signal, 14-3-3β titration ([2]; FC-A + CY compound, 14-3-3β concentration 7.8125e-6 M): 119.333 and 118.333 and 122.333
Fluorescence polarization signal, 14-3-3β titration ([2]; FC-A + CY compound, 14-3-3β concentration 1.5625e-5 M): 129.333 and 131.333 and 128.333
Fluorescence polarization signal, 14-3-3β titration ([2]; FC-A + CY compound, 14-3-3β concentration 3.125e-5 M): 139.333 and 142.333 and 140.333
Fluorescence polarization signal, 14-3-3β titration ([2]; FC-A + CY compound, 14-3-3β concentration 6.25e-5 M): 148.333 and 150.333
Fluorescence polarization signal, 14-3-3β titration ([2]; FC-A + CY compound, 14-3-3β concentration 0.000125 M): 156.333 and 152.333
Fluorescence polarization signal, 14-3-3β titration ([2]; FC-A + CY compound, 14-3-3β concentration 0.00025 M): 161.333 and 163.333 and 160.333
Fluorescence polarization signal, 14-3-3β titration ([2]; FC-A + CY compound, 14-3-3β concentration 0.0005 M): 171.333 and 173.333
SMILES: N=C(N)NCCCC1NC(=O)C(CCCCN)NCc2ccccc2Sc2ccccc2CNC(=O)C(Cc2ccc(O)cc2)NC1=O (stereo not drawn) [CY001951]

FP signal ([1]; compound 476.8 pM): 5
FP signal ([1]; compound 953.7 pM): 5
FP signal ([1]; compound 1.90735e-9 M): 4
FP signal ([1]; compound 3.8147e-9 M): 7
FP signal ([1]; compound 7.6294e-9 M): 5
FP signal ([1]; compound 1.52588e-8 M): 4
FP signal ([1]; compound 3.05176e-8 M): 4
FP signal ([1]; compound 6.10352e-8 M): 7
FP signal ([1]; compound 1.2207e-7 M): 6
FP signal ([1]; compound 2.44141e-7 M): 5
FP signal ([1]; compound 4.88281e-7 M): 6
FP signal ([1]; compound 9.76563e-7 M): 7
FP signal ([1]; compound 1.95313e-6 M): 8
FP signal ([1]; compound 3.90625e-6 M): 14
FP signal ([1]; compound 7.8125e-6 M): 28
FP signal ([1]; compound 1.5625e-5 M): 52
FP signal ([1]; compound 3.125e-5 M): 90
FP signal ([1]; compound 6.25e-5 M): 137
FP signal ([1]; compound 0.000125 M): 191
FP signal ([1]; compound 0.00025 M): 224
FP signal ([1]; compound 0.0005 M): 238
FP signal ([1]; compound 0.001 M): 248
SMILES: NCCCC1NCc2ccccc2Sc2ccccc2CNC(=O)C(Cc2c[nH]c3ccccc23)NC(=O)C(Cc2ccccc2)NC1=O (stereo not drawn) [CY007345]
